Results reported in PubChem BioAssay (NCI).
“And” between values parts separate entries of the source, which are not always exact repeats. Identical values can stand only once.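 Cultured in 96-well plates, cells were exposed to test compound for 48 hours across five concentrations. GI50: concentration for 50% inhibition of growth. TGI denotes the concentration required for complete inhibition of growth.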

Key:
Experiment in all cases: NCI-60 cell line screen, 48 h
[1] = test system: SF-539 CNS
[2] = test system: SK-MEL-2 melanoma
[3] = test system: OVCAR-3 ovarian
[4] = test system: SF-295 CNS
[5] = test system: NCI-H522 lung
[6] = test system: SN12C renal
[7] = test system: NCI/ADR-RES ovarian
[8] = test system: OVCAR-5 ovarian
[9] = test system: UO-31 renal
[10] = test system: DU-145 prostate

Row | SMILES | TGI [1] | GI50 [2] [µM] | TGI [2] | GI50 [3] [µM] | TGI [3] | GI50 [4] [µM] | TGI [4] [µM] | TGI [5] [µM] | GI50 [6] [µM] | TGI [7] | GI50 [8] [µM] | TGI [8] [µM] | TGI [9] | TGI [6] [µM] | GI50 [5] [µM] | GI50 [10] [µM] | TGI [10] [µM] | GI50 [7] [µM] | GI50 [9] | GI50 [1] [µM]
1 | CCCCCCCCCCC(O)[C@H]1CCC(C2CC[C@H]([C@H](O)CCCCCCCCCCC(O)CC3=CC(C)OC3=O)O2)O1 (some centres undefined) | 2.9 µM and 5.61 µM | 1.76 | 3.43 µM and 4.72 µM | 0.674 | 4.01 µM and 3.32 µM | 0.29 | 14.1 | 5.06 | 1.76 | 2.11 µM | 2.58 | 9.11 | 2.36 µM and 2.67 µM |  |  |  |  |  |  | 
2 | COc1ccc(C2=NN(C(=O)COc3ccc(Cl)cc3)C(O)(c3ccc(Cl)cc3)C2)cc1 (centres undefined) | > 100 µM |  | > 100 µM |  | > 100 µM |  | > 100 | > 100 |  |  |  | > 100 | > 100 µM | > 100 |  |  |  |  |  | 
3 | NNC(=O)CCC(=O)Nc1cc(Cl)c(Cl)cc1Cl | > 100 µM |  | > 100 µM |  | > 100 µM |  | > 100 | > 100 |  |  |  | > 100 | > 100 µM | > 100 |  |  |  |  |  | 
4 | NC(=NC1CCCCCCC1)c1ccc(N2CCN(c3ccc(C(N)=NC4CCCCCCC4)cc3)CC2)cc1 |  | 12 | > 100 µM | 1.73 | 13.8 µM | 2.04 | 6.09 | 52.2 | 7.62 | > 100 µM | 14.9 | 39 | > 100 µM | 69.3 | 12.8 | 1.94 | 12.6 | > 100 | 48.3 µM | 
5 | CC(=O)NCCSC(=O)c1ccccc1 | 1.39 µM |  | 0.827 µM |  | 0.944 µM |  | 0.83 |  |  | 0.688 µM |  | 0.527 |  | 0.492 |  |  | 2.62 |  |  | 
6 | O=c1c2cc(Br)ccc2nc(-c2ccccc2Cl)n1NCC1(O)OCC(O)C(O)C1O (centres undefined) |  |  | > 100 µM |  | > 100 µM |  | > 100 | > 100 |  |  |  | > 100 | > 100 µM | > 100 |  |  |  |  |  | 
7 | Cn1ccc2c(c1=O)C(=O)c1nccc3c1c-2nc1ccccc13 | 3.42 µM |  |  |  |  | 1.54 | 3.02 |  | 1.56 |  | 1.92 | 3.46 | 3.21 µM | 3.03 |  |  |  |  | 1.55 µM | 1.83
8 | CC1CC(c2cccc3c2OCO3)=Nc2ccccc2S1 (centres undefined) | > 100 µM |  | > 100 µM |  | > 100 µM |  | > 100 | > 100 |  |  |  | > 100 | > 100 µM | > 100 |  |  |  |  |  | 
9 | CC1=C(C(=O)Nc2cccc(Cl)c2)C(c2ccc([N+](=O)[O-])cc2)C(C(=O)Nc2cccc(Cl)c2)=C(C)N1 | > 100 µM |  | 32.9 µM |  | 85.3 µM |  | 58.4 | 89.9 |  |  |  | > 100 | 65.4 µM | 75.8 |  |  |  |  |  | 
10 | O=C1Nc2ccccc2C1Cc1ccc([N+](=O)[O-])cc1 (centres undefined) |  |  | > 100 µM |  | > 100 µM |  | > 100 | > 100 |  | > 100 µM |  | > 100 | > 100 µM | > 100 |  |  | > 100 |  |  | 
11 | O=C(/C=C/c1ccc(Cl)c(Cl)c1)c1ccc(F)cc1 | 38.2 µM |  |  |  | 38.1 µM |  | 41.6 | 18.5 |  |  |  | 55.2 | > 100 µM | 52.2 |  |  |  |  |  | 
12 | COCC1N=C(c2cc(OC)c(OC)c(OC)c2-c2cc3c(cc2C2OCCCO2)OCO3)O[C@H]1c1ccccc1 (some centres undefined) | > 100 µM |  | > 100 µM |  | > 100 µM |  | > 100 | > 100 |  |  |  | > 100 | > 100 µM | > 100 |  |  |  |  |  | 
13 | CC(/C(=N/NC(=O)C(N)=O)c1c(Cl)ccc(Cl)c1O)C1(O)C(=O)Nc2ccccc21 (centres undefined) | > 100 µM |  | > 100 µM |  | > 100 µM |  | > 100 | 44.6 |  |  |  | > 100 | > 100 µM | > 100 |  |  |  |  |  | 
14 | CCN1CCN(CC(=O)Nc2nc3ccc(NCc4ccc(Cl)cc4)cc3s2)CC1 | 3.18 µM | 2.02 | 3.98 µM | 3.16 | 16.8 µM |  |  | 5.19 | 2.94 | > 100 µM |  |  | 3.19 µM | 11.9 | 2.2 | 7.31 | > 100 | 2.88 | 1.62 µM | 1.69
15 | C=C(C)C(=O)OC1CC2=CC(CC3(C)OC3C3OC(=O)C(=C)C13)OC2=O (centres undefined) | 18.3 µM |  | 26.4 µM |  | 25.4 µM |  | 32.7 | 4.18 |  |  |  | 34.6 | 26.2 µM | 26.8 |  |  | 51.8 |  |  | 
16 | O=c1c2cccc3cccc(c4oc5c6cccc7cccc(c(=O)c5c14)c76)c32 | 31.5 µM |  | 23.3 µM |  | 17 µM |  | > 31.6 | 10.1 |  |  |  | > 31.6 | 23.1 µM | 18.2 |  |  |  |  |  | 
17 | Fc1cccc2cc3ccc4cccc5ccc(c12)c3c45 | > 100 µM |  |  |  | > 100 µM |  | > 100 | > 100 |  |  |  | > 100 | > 100 µM | > 100 |  |  |  |  |  | 
18 | CC(=O)Nc1ccc(/C=N\N2C(=O)c3ccccc3C2=O)cc1 | > 100 µM |  | > 100 µM |  | > 100 µM |  | > 100 |  |  |  |  | > 100 | > 100 µM | > 100 |  |  |  |  |  | 
19 | COC(C(=O)C(O)C(C)O)C1Cc2cc3cc(OC4CC(OC(C)=O)C(OC5CC(O)C(OC)C(C)O5)C(C)O4)cc(O)c3c(O)c2C(=O)C1OC1CC(OC2CC(OC3CC(C)(O)C(OC(=O)C(C)C)C(C)O3)C(O)C(C)O2)C(O)C(C)O1 (centres undefined) |  | 0.0189 | 0.042 µM and 0.0104 µM |  |  |  |  |  |  | 63.7 µM and > 100 µM |  |  | 4.1 µM and 5.22 µM |  | 0.000196 |  | 0.569 |  | 0.399 µM and 0.46 µM | 0.000553
20 | Nc1ccn(CCO)c(=O)n1 | > 100 µM |  | > 100 µM |  | > 100 µM |  | > 100 | > 100 |  |  |  | > 100 | > 100 µM | > 100 |  |  |  |  |  | 
21 | [C-]#[O+].[C-]#[O+].[C-]#[O+].[C-]#[O+].[Ir].[Ir].[O-]c1ccc2ccccc2c1C=Nc1ccc(N=Cc2c([O-])ccc3ccccc23)cc1 | > 100 µM | > 100 | > 100 µM | > 100 | > 100 µM | > 100 | > 100 |  | > 100 |  | > 100 | > 100 | > 100 µM | > 100 |  |  |  |  | > 100 µM | > 100
22 | O=C(O)CCSCCCN1C(=O)c2ccccc2C1=O | > 100 µM |  | > 100 µM |  | > 100 µM |  | > 100 |  |  |  |  | > 100 | > 100 µM | > 100 |  |  |  |  |  | 
